The IC50 is the concentration that inhibits the measured activity by half. For orientation: Kd means the constant that tells how readily two partners part at equilibrium.

In one data set the test system is NCNga mice. The settings on record: picrylchloride-induced dermatitis; cited from earlier work.
Another data set has as its system patients with OAB. As to conditions: cited from earlier work.
The next data set deals with human NK-1 receptor (Homo sapiens, UniProt P25103). The settings on record: cited from earlier work.
Data set [1] is described as follows: Solubility of Compound 1 in solvents. The format is physicochemical. From the text: S-BTBA ((S)-1-[3,5-bis(trifluoromethyl)] phenylethanol)) (12) is reacted with trichloroacetonitrile (Sigma-Aldrich) in the presence of base 1,8-diazabicycloundec-7-ene (DBU) to produce imidate (13). HBF4 is used to catalyze the reaction of (11) with (13) to yield ether (14). Treatment with allylamine and bis-propylsulfonate cyclizes (14) to allylamine-protected pyrrolidine (15). Removal of the allyl protecting group with thiosalicylic acid and 1,4-bis(diphenylphosphino)butane (dppb), followed by […] (Pd2(dba)3) and isolation with acetic acid gives crystalline (16). Finally, (16) is reacted with 1,3-cyclopentanedione (Sigma-Aldrich) in isopropyl alcohol to give Compound 1. Compound 1 is a white to off-white powder.

Data set [2] in a line: In vitro skin permeation, Franz diffusion cell. The format is in vitro ADME. The settings on record: topical formulations B and C, LC-MS/MS, human skin, 37° C. Here is the method: In vitro skin permeation of serlopitant in topical formulations A-D was evaluated using a Franz diffusion cell. FIG. 2 illustrates a Franz diffusion cell. A Franz diffusion cell having a circular permeation area of 4.15 cm^2 and a receptor chamber volume of 19 mL was set up with a thermo-regulated outer water jacket to maintain the temperature at 37° C. The receptor chamber was filled with 19 mL 1×PBS (pH 7.5) containing 10% ethanol and 1% Tween® 80.
Human skin was pretreated to remove all subcutaneous fat and was cleaned with 70% ethanol before use. The skin was visually inspected to ensure that it was free of any surface irregularity or small holes and was equally divided into four pieces. The skin was then mounted onto the receptor chamber with the stratum corneum side facing up. About 100 mg of topical formulation A, B, C or D was applied to the skin (actual weight: A, 103.8 mg; B, 101.3 mg; C, 103.2 mg; and D, 103.8 mg), which was then covered with parafilm to avoid evaporation. […]
All samples were processed by solid-phase extraction (SPE) before LC-MS/MS analysis. […] Serlopitant concentrations in samples resulting from formulations A-D were determined by comparison to the standard. Serlopitant was not detected in samples resulting from topical formulations A and D, as expected. […] After an initial lag, serlopitant was detected by LC-MS/MS in the receptor chamber at 6 hours.

The test system of a further data set is CYP-3A4 mRNA. As to conditions: three individual preparations of human hepatocytes; cited from earlier work.
Data set [3] relates to cloned human NK-2 and NK-3 receptors. As to conditions: CHO cells stably expressing the respective receptors; cited from earlier work.
Data set [4] can be described thus: Solubility test in Franz cell receptor solution. Format: physicochemical.
The target of the next data set is CYP2C9 (Homo sapiens, UniProt P11712). The settings on record: cited from earlier work.
Data set [5] concerns patients with chronic pruritus. Details: patients with considerable reduction in itch intensity: unit not given here. The settings on record: 80 mg daily for 3 to 13 days, cited from earlier work.
The test system of data set [6] is patients suffering from chronic pruritus. The settings on record: single topical dose, 5% in a lipophilic vehicle; cited from earlier work.
Data set [7] concerns patients with Sézary syndrome. The settings on record: oral, 80 mg daily, three patients with Sézary syndrome; cited from earlier work.
The next data set deals with CYP3A4 (Homo sapiens, UniProt P08684). The settings on record: cited from earlier work.
The conditions of data set [8]: itch; cited from earlier work.
The test system of data set [9] is patients with liver and kidney disease. The settings on record: cited from earlier work.

Structures are written as SMILES.

human NK-1 receptor, sequence (P25103 whole entry): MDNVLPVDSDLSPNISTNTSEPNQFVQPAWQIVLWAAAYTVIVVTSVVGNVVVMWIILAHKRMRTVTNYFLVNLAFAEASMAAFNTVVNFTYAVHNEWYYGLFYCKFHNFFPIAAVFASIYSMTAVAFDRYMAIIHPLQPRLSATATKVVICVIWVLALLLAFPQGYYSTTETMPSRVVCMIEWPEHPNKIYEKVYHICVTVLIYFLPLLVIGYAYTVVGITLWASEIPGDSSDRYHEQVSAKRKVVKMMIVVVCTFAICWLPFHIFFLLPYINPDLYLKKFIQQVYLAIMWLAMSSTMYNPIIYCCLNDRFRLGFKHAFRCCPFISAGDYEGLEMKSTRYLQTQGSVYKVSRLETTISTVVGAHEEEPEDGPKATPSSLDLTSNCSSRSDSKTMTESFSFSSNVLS
CYP3A4, sequence (P08684 whole entry): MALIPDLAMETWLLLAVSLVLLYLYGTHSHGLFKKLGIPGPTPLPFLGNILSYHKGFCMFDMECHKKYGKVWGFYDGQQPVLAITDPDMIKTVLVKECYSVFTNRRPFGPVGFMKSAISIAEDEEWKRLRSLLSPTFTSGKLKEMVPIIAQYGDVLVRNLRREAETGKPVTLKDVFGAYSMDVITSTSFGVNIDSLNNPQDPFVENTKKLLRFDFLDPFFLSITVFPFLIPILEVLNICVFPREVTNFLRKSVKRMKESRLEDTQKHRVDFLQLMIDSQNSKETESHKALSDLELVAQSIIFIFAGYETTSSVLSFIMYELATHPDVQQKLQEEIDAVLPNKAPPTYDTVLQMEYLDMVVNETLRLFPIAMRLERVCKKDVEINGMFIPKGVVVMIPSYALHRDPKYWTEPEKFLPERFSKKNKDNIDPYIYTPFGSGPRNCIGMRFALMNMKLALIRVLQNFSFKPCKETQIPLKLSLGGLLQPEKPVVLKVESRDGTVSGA
CYP2C9, sequence (P11712 whole entry): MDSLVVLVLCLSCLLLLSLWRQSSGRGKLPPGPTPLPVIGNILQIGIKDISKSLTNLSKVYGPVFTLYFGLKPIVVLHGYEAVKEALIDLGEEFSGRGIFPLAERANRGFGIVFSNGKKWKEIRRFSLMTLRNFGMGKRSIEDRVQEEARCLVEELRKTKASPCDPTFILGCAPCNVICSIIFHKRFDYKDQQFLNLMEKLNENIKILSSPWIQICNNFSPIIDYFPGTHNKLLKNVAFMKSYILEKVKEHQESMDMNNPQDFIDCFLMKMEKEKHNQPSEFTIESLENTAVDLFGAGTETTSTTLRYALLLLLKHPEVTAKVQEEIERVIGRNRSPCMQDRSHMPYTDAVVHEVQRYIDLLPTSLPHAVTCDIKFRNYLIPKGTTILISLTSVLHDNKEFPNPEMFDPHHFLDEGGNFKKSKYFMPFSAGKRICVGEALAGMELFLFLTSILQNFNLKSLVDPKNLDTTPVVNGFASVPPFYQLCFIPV

Regarding `CN(CCc1cc(C(F)(F)F)cc(C(F)(F)F)c1)C(=O)[C@H](c1ccccc1)N1CCN(CC2CC2)CC1` [BIIF 1149 CL], the scratching behavior result in the data set with NCNga mice is recorded as “inhibited scratching behavior”.
Consider `C[C@@H](O[C@H]1CC[C@@H]2CN(C3=CC(=O)CC3)C[C@H]2[C@@H]1c1ccc(F)cc1)c1cc(C(F)(F)F)cc(C(F)(F)F)c1` [Compound 1, 3-[(3aR,4R,5S,7aS)-5-[(1R)-1-[3,5-bis(trifluoromethyl)phenyl]ethoxy]-4-(4-fluorophenyl)-1,3,3a,4,5,6,7,7a-octahydroisoindol-2-yl]cyclopent-2-en-1-one], for which the “number of daily micturitions compared with placebo” value in the data set on patients with OAB (0.25 and 4 mg daily) is listed as “significantly reduced”. Moreover, the “adverse experience of dry mouth” value with patients with OAB was “not associated”. In addition, the “dose response relationship with micturition frequency” value with patients with OAB is on record as “did not show a dose response relationship”. Besides, in the data set with patients with OAB, the “drug-related serious adverse experiences” value is given as “no drug-related serious adverse experiences”. In the data set on patients with OAB, the “secondary efficacy end points: urinary urgency, urge incontinence and total incontinence” value is given as “did not significantly influence”. Also, in the data set with patients with OAB, the tolerability result was “generally well tolerated”. For the same compound, at human NK-1 receptor (read-out: IC50, displacement of substance P binding), the IC50 is 61 pM. Also, at human NK-1 receptor (read-out: Kd, binding to the human NK-1 receptor), the equilibrium dissociation constant (Kd) is 46 pM. Further, the solubility result is on record as “sparingly soluble” in data set [1] (acetonitrile); “soluble” in [1] (ethanol); “sparingly soluble” in [1] (ethyl acetate); “slightly soluble” in [1] (isopropyl acetate); “sparingly soluble” in data set [1] (isopropyl alcohol); “freely soluble” in data set [1] (methanol). Further, in [1] (water), the solubility result is “insoluble”. Moreover, the “time at which serlopitant was detected in the receptor chamber after initial lag” value in data set [2] came out at 6 h. In the data set on CYP-3A4 mRNA, the “induction of CYP-3A4 mRNA” value is “did not significantly induce”. Further, the “selectivity for NK-1 over NK-2 and NK-3 receptors” value in data set [3] is > 39,000 fold. For the same compound, the “solubility in receptor solution” value in data set [4] (0.5, 5 and 50 ug/mL in 1xPBS (pH 7.5) with 10% ethanol and 1% Tween 80, 1 hour at 37° C.) is given as “remained soluble”. For the same compound, the “solubility change if Tween 80 was not used” value in data set [4] (1xPBS (pH 7.5), 37° C.) is “decreased significantly”. In addition, in data set [4] (1xPBS (pH 7.5), 37° C.), the “solubility change if ethanol was not used” value is reported as “decreased slightly”.
Consider `C[C@@H](O[C@H]1OCCN(Cc2n[nH]c(=O)[nH]2)[C@H]1c1ccc(F)cc1)c1cc(C(F)(F)F)cc(C(F)(F)F)c1` [aprepitant], for which the “inhibition and induction of CYP2C9” value on CYP2C9 is “moderate inhibitor as well as an inducer”. Also, in data set [5] (atopic diathesis, prurigo nodularis), the “effect on chronic pruritus” value is on record as “significantly decreased chronic pruritus”. Besides, the “patients with considerable reduction in itch intensity” value in data set [5] (twenty patients) is recorded as “Eighty”. Moreover, in data set [6], the “absorption into the skin” value is recorded as “absorbed into the skin” and the “effect on patients' itch” value was “not alleviated”. The treatment of pruritus entry in data set [7] is listed as “had utility in treating pruritus”. At CYP3A4, the “inhibition and induction of CYP3A4” value is reported as “moderate inhibitor as well as an inducer”.
For the compound `NCC1(CC(=O)O)CCCCC1` [gabapentin], the onset of action in data set [8] is recorded as 5-6 weeks.
On to `C=C1CC[C@@]2(O)[C@H]3Cc4ccc(O)c5c4[C@@]2(CCN3CC2CC2)[C@H]1O5` [nalmefene], for which, in data set [9], the “effect on pruritus symptoms” value is reported as “decreased pruritus symptoms”; the side effects result is “significant central nervous and gastrointestinal side effects occurred”.
Turning to `C=CCN1CC[C@]23c4c5ccc(O)c4O[C@H]2C(=O)CC[C@@]3(O)[C@H]1C5` [naloxone], in data set [9], the “effect on pruritus symptoms” value is listed as “decreased pruritus symptoms”; the side effects result is “significant central nervous and gastrointestinal side effects occurred”.
Turning to `O=C1CC[C@@]2(O)[C@H]3Cc4ccc(O)c5c4[C@@]2(CCN3CC2CC2)[C@H]1O5` [naltrexone], in [9], the “effect on pruritus symptoms” value is “decreased pruritus symptoms”; the side effects entry was “significant central nervous and gastrointestinal side effects occurred”.
Turning to `Cc1ccc(O)c([C@H](CCN(C(C)C)C(C)C)c2ccccc2)c1` [tolterodine, reference compound], in the data set on patients with OAB, the “adverse experience of dry mouth” value is given as “common”, the “efficacy compared with placebo” value is given as “statistically significantly more effective” and the “efficacy compared with serlopitant at all efficacy end points” value is “numerically more effective”.

Values taken from patent US10617671B2, “Use of NK-1 receptor antagonist serlopitant in pruritus” (Menlo Therapeutics Inc., priority 2013, dated 2020).
